#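 All cell lines were grown in 96-well plates and treated with compound for 48 hours. Here, GI50 denotes the concentration required for 50% inhibition of growth.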 The source made the active and inactive calls. Cut-off read from the data, not from the text of the source: active = GI50 up to about 1.1 µM and inactive = higher.
# Experiments:
# Experiment in all cases: NCI anticancer screen, dose series, 48 h
# [1] = test system: MOLT-4
# [2] = test system: EKVX
# [3] = test system: RPMI-8226
# [4] = test system: NCI-H460
# [5] = test system: RXF 393
# [6] = test system: SNB-75
# [7] = test system: XF498
# [8] = test system: NCI-H226
# [9] = test system: HCT-15
# [10] = test system: SR
# [11] = test system: UO-31
# [12] = test system: A549
# [13] = test system: UACC-257
# [14] = test system: HL-60
# [15] = test system: HCT-116
# [16] = test system: HCC 2998
# [17] = test system: M19-MEL
# [18] = test system: OVCAR-4
# [19] = test system: DMS-273
# [20] = test system: ACHN
# [21] = test system: SW-620
# [22] = test system: SF-268
# [23] = test system: COLO 205
# [24] = test system: M14
# [25] = test system: SK-MEL-2
# [26] = test system: OVCAR-8
# [27] = test system: SNB-19
# [28] = test system: A498
# [29] = test system: K562
# [30] = test system: DMS-114
# [31] = test system: U-251
# [32] = test system: RXF 631
# [33] = test system: DLD-1
# [34] = test system: KM-20L2
# [35] = test system: 786-0
# [36] = test system: LOX IMVI
# [37] = test system: HOP-62
# [38] = test system: SF-539
# [39] = test system: SK-MEL-28
# [40] = test system: SN12C
# [41] = test system: CCRF-CEM
# [42] = test system: OVCAR-3
# [43] = test system: TK-10
# [44] = test system: Malme-3M
# [45] = test system: SF-295
# [46] = test system: NCI-H23
# [47] = test system: IGROV-1
# [48] = test system: SK-MEL-5
# [49] = test system: LXFL 529
# [50] = test system: UACC-62
# [51] = test system: SNB-78
# [52] = test system: HT-29
# [53] = test system: NCI-H522
# [54] = test system: SK-OV-3
# [55] = test system: OVCAR-5
# [56] = test system: HOP-18
# [57] = test system: HOP-92
# [58] = test system: KM12
# [59] = test system: CAKI-1
compound,measurement,setting,value
Cc1ccc(C2(C)NC(=S)N(NC(N)=S)C2=S)cc1 (centres undefined),GI50,[1],46.3 µM (inactive)
same,GI50,[2],> 100 µM (inactive)
same,GI50,[3],32.7 µM (inactive)
same,GI50,[4],> 100 µM (inactive)
same,GI50,[5],80.2 µM (inactive)
same,GI50,[6],25.3 µM (inactive)
same,GI50,[7],> 100 µM (inactive)
same,GI50,[8],> 100 µM (inactive)
same,GI50,[9],> 100 µM
same,GI50,[10],51.6 µM (inactive)
same,GI50,[11],> 100 µM (inactive)
same,GI50,[12],> 100 µM (inactive)
same,GI50,[13],> 100 µM (inactive)
same,GI50,[14],> 100 µM (inactive)
same,GI50,[15],> 100 µM (inactive)
same,GI50,[16],> 100 µM (inactive)
same,GI50,[17],> 100 µM (inactive)
same,GI50,[18],> 100 µM (inactive)
same,GI50,[19],> 100 µM (inactive)
same,GI50,[20],> 100 µM (inactive)
same,GI50,[21],87.7 µM (inactive)
same,GI50,[22],> 100 µM (inactive)
same,GI50,[23],> 100 µM (inactive)
same,GI50,[24],> 100 µM (inactive)
same,GI50,[25],> 100 µM (inactive)
same,GI50,[26],> 100 µM (inactive)
same,GI50,[27],> 100 µM (inactive)
same,GI50,[28],> 100 µM (inactive)
same,GI50,[29],39.6 µM (inactive)
same,GI50,[30],73.6 µM (inactive)
same,GI50,[31],> 100 µM (inactive)
same,GI50,[32],> 100 µM (inactive)
same,GI50,[33],71.1 µM (inactive)
same,GI50,[34],> 100 µM (inactive)
same,GI50,[35],81.1 µM (inactive)
same,GI50,[36],47 µM (inactive)
same,GI50,[37],> 100 µM (inactive)
same,GI50,[38],> 100 µM (inactive)
same,GI50,[39],> 100 µM (inactive)
same,GI50,[40],> 100 µM (inactive)
same,GI50,[41],24.6 µM (inactive)
same,GI50,[42],> 100 µM (inactive)
same,GI50,[43],> 100 µM (inactive)
same,GI50,[44],> 100 µM (inactive)
same,GI50,[45],> 100 µM (inactive)
same,GI50,[46],> 100 µM (inactive)
same,GI50,[47],> 100 µM (inactive)
same,GI50,[48],> 100 µM (inactive)
same,GI50,[49],71.8 µM (inactive)
same,GI50,[50],43.2 µM (inactive)
CS(=O)(=O)OCC1=C(COS(C)(=O)=O)C(=O)c2c(O)ccc(O)c2C1=O,GI50,[1],> 100 µM (inactive)
same,GI50,[2],> 100 µM (inactive)
same,GI50,[51],> 100 µM (inactive)
same,GI50,[3],> 100 µM (inactive)
same,GI50,[6],> 100 µM (inactive)
same,GI50,[8],> 100 µM (inactive)
same,GI50,[9],> 100 µM
same,GI50,[10],> 100 µM (inactive)
same,GI50,[52],> 100 µM (inactive)
same,GI50,[11],> 100 µM (inactive)
same,GI50,[12],> 100 µM (inactive)
same,GI50,[13],> 100 µM (inactive)
same,GI50,[14],> 100 µM (inactive)
same,GI50,[15],> 100 µM (inactive)
same,GI50,[16],> 100 µM (inactive)
same,GI50,[53],> 100 µM (inactive)
same,GI50,[18],> 100 µM (inactive)
same,GI50,[54],> 100 µM (inactive)
same,GI50,[19],> 100 µM (inactive)
same,GI50,[20],> 100 µM (inactive)
same,GI50,[21],> 100 µM (inactive)
same,GI50,[22],> 100 µM (inactive)
same,GI50,[23],> 100 µM (inactive)
same,GI50,[24],> 100 µM (inactive)
same,GI50,[25],> 100 µM (inactive)
same,GI50,[26],> 100 µM (inactive)
same,GI50,[28],> 100 µM (inactive)
same,GI50,[55],> 100 µM (inactive)
same,GI50,[56],> 100 µM (inactive)
same,GI50,[29],> 100 µM (inactive)
same,GI50,[30],> 100 µM (inactive)
same,GI50,[31],> 100 µM (inactive)
same,GI50,[32],> 100 µM (inactive)
same,GI50,[33],> 100 µM (inactive)
same,GI50,[34],> 100 µM (inactive)
same,GI50,[37],> 100 µM (inactive)
same,GI50,[38],> 100 µM (inactive)
same,GI50,[39],> 100 µM (inactive)
same,GI50,[57],> 100 µM (inactive)
same,GI50,[58],> 100 µM (inactive)
same,GI50,[40],> 100 µM (inactive)
same,GI50,[41],> 100 µM (inactive)
same,GI50,[42],> 100 µM (inactive)
same,GI50,[59],> 100 µM (inactive)
same,GI50,[43],> 100 µM (inactive)
same,GI50,[44],> 100 µM (inactive)
same,GI50,[45],> 100 µM (inactive)
same,GI50,[46],> 100 µM (inactive)
same,GI50,[47],> 100 µM (inactive)
same,GI50,[48],> 100 µM (inactive)
same,GI50,[49],> 100 µM (inactive)
same,GI50,[50],> 100 µM (inactive)
CC1=C(C(=O)Nc2ccc([N+](=O)[O-])cc2)C(c2ccccc2F)C(C(=O)Nc2ccc([N+](=O)[O-])cc2)=C(C)N1,GI50,[1],3.61 µM (inactive)
same,GI50,[2],8.81 µM (inactive)
same,GI50,[3],3.8 µM (inactive)
same,GI50,[4],13.6 µM (inactive)
same,GI50,[5],6.75 µM (inactive)
same,GI50,[6],13.9 µM (inactive)
same,GI50,[7],1.48 µM (inactive)
same,GI50,[8],14 µM (inactive)
same,GI50,[52],20.1 µM (inactive)
same,GI50,[11],6.61 µM (inactive)
same,GI50,[12],9.64 µM (inactive)
same,GI50,[13],15 µM (inactive)
same,GI50,[14],4.7 µM (inactive)
same,GI50,[15],5.13 µM (inactive)
same,GI50,[16],5.94 µM (inactive)
same,GI50,[53],8.2 µM (inactive)
same,GI50,[17],14.2 µM (inactive)
same,GI50,[18],9.14 µM (inactive)
same,GI50,[54],29.8 µM (inactive)
same,GI50,[20],4.21 µM (inactive)
same,GI50,[21],21.8 µM (inactive)
same,GI50,[22],21.2 µM (inactive)
same,GI50,[23],13 µM (inactive)
same,GI50,[24],15.1 µM (inactive)
same,GI50,[25],9.31 µM (inactive)
same,GI50,[26],21.7 µM (inactive)
same,GI50,[27],21.1 µM (inactive)
same,GI50,[28],5.48 µM (inactive)
same,GI50,[55],35.1 µM (inactive)
same,GI50,[29],6.61 µM (inactive)
same,GI50,[30],5.07 µM (inactive)
same,GI50,[31],14.9 µM (inactive)
same,GI50,[32],21.3 µM (inactive)
same,GI50,[33],8.45 µM (inactive)
same,GI50,[34],12.3 µM (inactive)
same,GI50,[35],20.8 µM (inactive)
same,GI50,[36],11 µM (inactive)
same,GI50,[37],15 µM (inactive)
same,GI50,[38],17.3 µM (inactive)
same,GI50,[39],20.7 µM (inactive)
same,GI50,[57],4.45 µM (inactive)
same,GI50,[58],9.14 µM (inactive)
same,GI50,[40],8.18 µM (inactive)
same,GI50,[41],7 µM (inactive)
same,GI50,[42],8.32 µM (inactive)
same,GI50,[59],18.2 µM (inactive)
same,GI50,[43],23.7 µM (inactive)
same,GI50,[44],13.7 µM (inactive)
same,GI50,[45],20.3 µM (inactive)
same,GI50,[46],11.2 µM (inactive)
same,GI50,[47],12.8 µM (inactive)
same,GI50,[48],13.9 µM (inactive)
same,GI50,[49],6.92 µM (inactive)
CC1=C(C(=O)Nc2ccccc2)C(c2ccc(Cl)c(Cl)c2)C(C(=O)Nc2ccccc2)=C(C)N1,GI50,[1],0.512 µM (active)
same,GI50,[2],16.6 µM (inactive)
same,GI50,[51],17.7 µM (inactive)
same,GI50,[4],13 µM (inactive)
same,GI50,[5],8.61 µM (inactive)
same,GI50,[6],14.2 µM (inactive)
same,GI50,[7],16.6 µM (inactive)
same,GI50,[9],10.9 µM
same,GI50,[52],12.2 µM (inactive)
same,GI50,[11],13.2 µM (inactive)
same,GI50,[12],7.48 µM (inactive)
same,GI50,[13],12.7 µM (inactive)
same,GI50,[15],10.4 µM (inactive)
same,GI50,[53],11.6 µM (inactive)
same,GI50,[17],12.9 µM (inactive)
same,GI50,[18],9.75 µM (inactive)
same,GI50,[54],15.1 µM (inactive)
same,GI50,[19],13 µM (inactive)
same,GI50,[20],12.1 µM (inactive)
same,GI50,[21],17 µM (inactive)
same,GI50,[22],12 µM (inactive)
same,GI50,[23],15.4 µM (inactive)
same,GI50,[24],11.5 µM (inactive)
same,GI50,[26],13.7 µM (inactive)
same,GI50,[27],12.9 µM (inactive)
same,GI50,[28],16.7 µM (inactive)
same,GI50,[55],18.3 µM (inactive)
same,GI50,[30],11.2 µM (inactive)
same,GI50,[31],14.5 µM (inactive)
same,GI50,[32],12.4 µM (inactive)
same,GI50,[33],12.1 µM (inactive)
same,GI50,[34],14.9 µM (inactive)
same,GI50,[35],12.8 µM (inactive)
same,GI50,[36],14.2 µM (inactive)
same,GI50,[37],14.5 µM (inactive)
same,GI50,[38],17.3 µM (inactive)
same,GI50,[39],12.8 µM (inactive)
same,GI50,[58],13 µM (inactive)
same,GI50,[40],14.9 µM (inactive)
same,GI50,[41],5.06 µM (inactive)
same,GI50,[42],11.7 µM (inactive)
same,GI50,[43],33.9 µM (inactive)
same,GI50,[44],12.7 µM (inactive)
same,GI50,[45],12.5 µM (inactive)
same,GI50,[46],12.5 µM (inactive)
same,GI50,[47],14.5 µM (inactive)
same,GI50,[48],14 µM (inactive)
same,GI50,[49],12.9 µM (inactive)
same,GI50,[50],10.2 µM (inactive)
